From a melting point compilation (Tetko et al.; mined from patent text by program, amines drawn as free bases though some values may be those of a salt)

| Compound | melting point [°C] |
| --- | --- |
| CCCOc1ccc(Br)c(C(=O)C=Cc2ccc3c(c2)OCO3)c1 | 80 to 82 |
| O=C(O)c1cn(CCF)c2cc(Cl)c(F)cc2c1=O | 262 to 264 |
| N#Cc1nn(-c2c(Cl)cc(C(F)(F)F)cc2Cl)c(NCc2cnccn2)c1S(=O)C(F)(F)F (stereo not drawn) | 169 |
| c1cn(-c2ccc3nc(-c4ccc5c(c4)OCCO5)ncc3c2)cn1 | 132 |
| CCOC(=O)c1cccc2nc(CC)n(Cc3ccc(-c4ccccc4C(=O)C(=O)OC)cc3)c12 | 118 to 119 |
| Clc1cncc(Cl)c1CBr | 40 to 44 |
| CC(C)c1cccc(C(C)C)c1NC(=O)C(Cc1ccccc1)NC(=O)CCCCl (stereo not drawn) | 212 to 215 |
| CCc1cc(OCc2ccc(-c3ccccc3-c3nnnn3-c3ccc([N+](=O)[O-])cc3)cc2)c2c(n1)CCCC2 | 205 to 207 |
| Cc1coc2c1C(=O)CC(c1ccc(F)cc1F)C2 (stereo not drawn) | 101 to 102 |
| C1=C(c2ccccc2)CCN(Cc2cc3ccccc3[nH]2)C1 | 128 to 130 |
| Cc1cc(Br)cnc1CCCCNc1ncc(Cc2ccccc2)c(=O)[nH]1 | 138 to 139 |
| COc1ccc(N2CCN(c3c(C)c(C)c4c(c3C)CC(C)O4)CC2)c(OC)c1 (stereo not drawn) | 142 to 144 |
| N#CC(Cc1cccc(F)c1)n1nnc2cc3c(cc2c1=O)OC1CCCN1C3=O (stereo not drawn) | 182 to 184 |
| c1ccc(Oc2nnns2)cc1 | 35 to 36 |
| Cc1nc(O)c(-c2ccc(S(C)(=O)=O)cc2)s1 | 216 to 226 |
| O=C(O)COc1ccc(SCc2ccc(-c3ccc(C(F)(F)F)cc3)cc2)c2c1CCC2 | 158 to 159 |
| CCCCCCCCSCN1CN(CSCCCCCCCC)c2cccc3cccc1c23 | 52 to 56 |
| Cn1cc(-c2ccc(O)cc2)c(=O)c(-c2cccc(C(F)(F)F)c2)c1 | 162 to 163 |
| COc1cc(C=CC=O)ccc1OC(C)=O | 83 to 86 |
| CC(=O)Nc1nc(CCc2ccc(NC(=O)OC(C)(C)C)cc2)c(C(=O)NCc2ccc(S(C)(=O)=O)cc2)s1 | 192 to 193 |
| CCOc1cccc(NC(=O)Nc2ccc3c(c2)CCN(C(=O)Nc2ccc(OCCO)cc2Cl)C3)c1 | 148 to 150 |
| COc1c(OCC(F)(F)F)ccnc1CSc1nc2ccc(C(F)(F)F)cc2[nH]1 | 80 to 82 |
| COCCCNc1nc(N)c(Cl)c(Cl)n1 | 114 |
| CC(C)OC(=O)NC(C(=O)N1CCCC1C(=O)O)C(C)(C)SC(C)C (stereo not drawn) | 128 to 130 |
| CS(=O)(=O)c1ccccc1[N+](=O)[O-] | 102 to 104 |

| Compound | melting point [°C] |
| --- | --- |
| Cc1ccc2c(n1)Nc1cc(C)c(C)cc1N(C)C2=O | 217 to 219 |
| Cc1cc(C)cc(Sc2cncc3sc(C(N)=O)cc23)c1 | 177 to 179 |
| CCOC(=O)CCc1cc(CCC(=O)O)cc(Oc2cccnc2)c1 | 85 to 87 |
| O=C(O)c1ccc(NCCCCCCCCCCCc2ccccc2)cc1 | 50 to 52 |
| CCCn1c(=O)c2c(nc(C=Cc3cc(OC)c(OC)c(OC)c3S(N)(=O)=O)n2C)n(CCC)c1=O | 243 to 245 |
| FC(F)(F)c1cc(Cl)c(-n2cnc(C(F)(F)C(F)(F)Cl)c2)c(Cl)c1 | 101 |
| COc1ccc(CC#N)cc1C(=O)NCc1ccc(C(F)(F)F)cc1 | 124 to 125 |
| CON=C(C)C1=CCCN(O)C1 | 94 to 96 |
| Cn1c(COc2ccc(CC3SC(=O)NC3=O)cc2)nc2ccc(Oc3ccc(NC(=O)c4ccccc4)cc3)cc21 (stereo not drawn) | 200 to 204 |
| CCCCC(=O)N(Cc1ccc(Br)cc1)[C@H](C(=O)O)C(C)C | 123 |
| Cc1ccc(-c2cc3c(s2)CCCC(C(=O)O)=C3)cc1 | 250 to 251 |
| Cc1ccc(Oc2cccc(-c3nnc(Nc4ccc(Cl)c(Cl)c4)s3)c2)cc1 | 210 to 211 |
| COc1ccc(CCOc2cccc(-c3cccc(C(=O)O)c3)n2)cc1OC | 147 to 148 |
| ClCc1nnc2n1-c1ccc(Cl)cc1C(c1ccccc1Cl)=NC2 | 195 to 198 |
| Cc1c(-c2ccncn2)nc2n(c1=O)CCCN2 | 206 to 207 |
| CCCCCNC(=O)Nc1ccccc1C(=O)NCCC1CCN(C(c2ccccc2)c2ccccc2)CC1 | 124 to 127 |
| Cc1c(SCCCN2CCOCC2)ccnc1CSc1nc2ccccc2[nH]1 | 149 to 150 |
| CCc1cccc(CC)c1C(=O)Nc1nnc(C(C)(CC)CC)s1 | 186 to 188 |
| CCN(CC)Cc1ccc(-c2cccc(-c3ccnc4c(C(=O)c5cccs5)cnn34)c2)cc1 | 144 to 146 |
| c1ccc(C(CC2=NCCN2)c2ccncc2)cc1 (stereo not drawn) | 105 to 107 |
| O=C1CCC2=C(CCc3cccc(Br)c32)N1 | 189 to 190 |
| Cc1cc(=O)n(CCCN2CCC(c3c[nH]c4ccccc34)CC2)c2ccccc12 | 74 to 77 |
| CCNC(=O)Nc1nc2nc(NCCCN(C)C)ncc2cc1-c1c(C)cccc1C | 64 to 70 |
| O=S1CCc2nc(N3CCN(c4ccccc4)CC3)nc(Nc3cccc(Cl)c3)c21 (stereo not drawn) | 230 to 231 |
| Clc1nc(-c2cccnc2)sc1Br | 114 to 115 |

| Compound | melting point [°C] |
| --- | --- |
| COC(=O)C1=C(C)NC(=O)N(C(C)=O)C1c1ccccc1 (stereo not drawn) | 156 to 159 |
| O=C1CCNc2c1cc(Cl)cc2[N+](=O)[O-] | 132 to 135 |
| CN(C)CC(C)(C)Cn1ccc(-c2ccc(F)cc2)c1-c1ccncc1 | 101 to 103 |
| COc1ccc(C(C)(C#N)CNC(=O)C(N)=O)cc1OC1CCCC1 (stereo not drawn) | 171 to 172 |
| O=C1Cc2ccccc2C(c2cccc(Cl)c2)N1 (stereo not drawn) | 133 to 134 |
| CCN(CC)C(=O)/C(=C/C=C/c1cc2ccccc2[nH]1)OC | 141 to 143 |
| CC(=O)c1ccc(C(=O)NCC(=O)NCC(F)(F)F)c2ccccc12 | 169 |
| CC(C)(C)c1csc(N)c1C(N)=O | 145 |
| CSCCCn1c(C)c(C(=O)c2cccc(Cl)c2Cl)c2cccc(Br)c21 | 119 |
| CCOC(=O)CCc1cc(O)nn1C1CCCCC1 | 173 to 174 |
| COc1cn2nc(OCCCN3CCC(OC(c4ccccc4)c4ccccc4)CC3)ccc2n1 | 133 to 135 |
| CCN1C=C(C(=O)OC)C(=O)CC1c1ccc(N(C)C)cc1 (stereo not drawn) | 85 to 87 |
| COC(=O)c1ccc(C(=O)NS(=O)(=O)c2ccc(CCNC(=O)Cc3ccc(OC)c(OC)c3)cc2)cn1 | 164 to 169 |
| Cn1cc(C2CCC(=O)C2)c2cc(C#N)ccc21 (stereo not drawn) | 167 to 168 |
| CCCc1c(OCCCCCOc2ccc3nc(CCC(=O)OCC)ccc3c2CCC(=O)OCC)ccc2c1OCCC2=O | 59 to 61 |
| O=C1C[C@H](O)[C@H](CC2CCCCC2)N1 | 141 to 143 |
| CCOC(=O)COc1cccc(C(N)=O)c1 | 158 to 159 |
| O=C1NC(=O)C2(C=Cc3cscc32)N1 (stereo not drawn) | 241 to 243 |
| CC(=O)Nc1nc(CCc2ccc(N)cc2)c(C(=O)NCc2ccccc2)s1 | 200 to 201 |
| CC(C)(C)OC(=O)NC(Cc1ccccc1)C(O)CNCC(O)C(Cc1ccccc1)NC(=O)SC(C)(C)C (stereo not drawn) | 140 to 141 |
| CC1(COCCCCCCOc2ccc(C(=O)O)cc2)COC1 | 58.5 |
| Cc1cc(=O)c(O)c(C)o1 | 161 to 163 |
| CN1CCC(=C2c3ccc(F)cc3CCn3ccnc32)CC1 | 152 |
